Assay results: ChEMBL document CHEMBL2150845, “BACE Inhibitors: Potential Treatment of Alzheimer's Disease, Dementia, and Related Neurodegenerative Disorders (A): 5,6-Dihydroimidazo[1,2-a]pyrazin-8-yl-amine Derivatives: Patent Highlight” (ACS Med Chem Lett, 2012)

These compounds were tested against Beta-secretase 1 (Homo sapiens, UniProt P56817) (assay: Inhibition of BACE1 by FRET assay).
Sequence of Beta-secretase 1 (P56817 whole entry): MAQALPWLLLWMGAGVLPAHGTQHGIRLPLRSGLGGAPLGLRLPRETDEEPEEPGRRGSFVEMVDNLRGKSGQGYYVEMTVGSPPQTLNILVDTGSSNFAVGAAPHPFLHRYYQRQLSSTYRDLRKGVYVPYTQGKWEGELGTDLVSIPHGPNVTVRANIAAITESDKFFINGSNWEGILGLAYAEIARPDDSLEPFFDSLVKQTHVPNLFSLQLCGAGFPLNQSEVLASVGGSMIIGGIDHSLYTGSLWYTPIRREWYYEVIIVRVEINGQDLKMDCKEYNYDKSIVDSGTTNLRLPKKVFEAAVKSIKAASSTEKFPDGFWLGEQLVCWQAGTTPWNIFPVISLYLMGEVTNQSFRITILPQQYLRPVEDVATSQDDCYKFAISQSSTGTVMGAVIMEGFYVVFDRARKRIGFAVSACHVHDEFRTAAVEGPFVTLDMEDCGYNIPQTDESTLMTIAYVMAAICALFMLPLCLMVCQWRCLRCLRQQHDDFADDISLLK

IC50 [nM]	Compound
46.8	C[C@@]1(c2cc(NC(=O)c3ccn(C(F)F)n3)ccc2F)Cn2cc(C(F)(F)F)nc2C(N)=N1
44.7	C[C@@]1(c2cc(NC(=O)c3ccn(C(F)F)n3)ccc2F)Cn2c(C#N)cnc2C(N)=N1
38.9	C[C@@]1(c2cc(NC(=O)c3ccc(C#N)cn3)ccc2F)Cn2c(C#N)cnc2C(N)=N1
> 30200	NC1=N[C@@](c2cc(NC(=O)c3ccc(F)cn3)ccc2F)(C(F)F)Cn2ccnc21
